Experiment in all cases: biochemical
What all share (type): biochemical

The target in test [1] is 363 human kinases (including Aurora A/B/C) (Homo sapiens, UniProt O96017). Particulars: CHK2, [ATP] 20 µM.
Text: (§1) However, the Aurora A/B selectivity ratios derived from our in vitro and in vivo data can be compared to prioritize inhibitors.
The target of test [2] is 363 human kinases (including Aurora A/B/C) (Homo sapiens, UniProt P29317). The note with it: EPHA2, [ATP] 50 µM; for remaining activity at 0.5 µM / remaining activity at 0.1 µM: read-out: % Enzyme Activity (relative to DMSO controls); for remaining activity at 0.1 µM: 100 nM.
Sequence of 363 human kinases (including Aurora A/B/C) (Homo sapiens, UniProt P29317) (P29317 24-976): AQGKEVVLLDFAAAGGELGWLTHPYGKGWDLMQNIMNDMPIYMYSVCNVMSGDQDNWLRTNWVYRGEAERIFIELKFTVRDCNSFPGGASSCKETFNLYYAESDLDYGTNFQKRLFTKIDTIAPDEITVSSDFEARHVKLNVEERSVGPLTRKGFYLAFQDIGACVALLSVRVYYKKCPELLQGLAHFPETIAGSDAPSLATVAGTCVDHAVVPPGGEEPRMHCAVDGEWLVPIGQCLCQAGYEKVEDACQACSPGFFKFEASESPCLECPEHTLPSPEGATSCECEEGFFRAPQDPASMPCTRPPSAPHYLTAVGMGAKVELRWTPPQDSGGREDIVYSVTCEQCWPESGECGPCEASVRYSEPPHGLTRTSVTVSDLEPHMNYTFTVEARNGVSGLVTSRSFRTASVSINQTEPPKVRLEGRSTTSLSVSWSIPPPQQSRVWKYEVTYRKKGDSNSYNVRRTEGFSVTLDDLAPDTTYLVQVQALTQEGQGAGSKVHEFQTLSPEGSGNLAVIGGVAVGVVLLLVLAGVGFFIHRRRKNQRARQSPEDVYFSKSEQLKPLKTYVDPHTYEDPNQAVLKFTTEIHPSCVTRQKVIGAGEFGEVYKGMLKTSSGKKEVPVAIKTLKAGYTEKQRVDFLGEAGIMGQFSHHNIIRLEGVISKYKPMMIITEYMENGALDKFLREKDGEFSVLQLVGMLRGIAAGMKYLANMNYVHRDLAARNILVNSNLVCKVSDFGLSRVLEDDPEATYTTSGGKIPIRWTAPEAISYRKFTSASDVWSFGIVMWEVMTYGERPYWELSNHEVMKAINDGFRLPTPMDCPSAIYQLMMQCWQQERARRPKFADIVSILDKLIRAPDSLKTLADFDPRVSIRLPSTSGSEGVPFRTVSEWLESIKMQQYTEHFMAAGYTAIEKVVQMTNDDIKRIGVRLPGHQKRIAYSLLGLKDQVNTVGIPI
Text: as §1
Test [3] deals with T1, 363 human kinases (including Aurora A/B/C) (Homo sapiens, UniProt P35626).
T1 sequence (P35626 1-688): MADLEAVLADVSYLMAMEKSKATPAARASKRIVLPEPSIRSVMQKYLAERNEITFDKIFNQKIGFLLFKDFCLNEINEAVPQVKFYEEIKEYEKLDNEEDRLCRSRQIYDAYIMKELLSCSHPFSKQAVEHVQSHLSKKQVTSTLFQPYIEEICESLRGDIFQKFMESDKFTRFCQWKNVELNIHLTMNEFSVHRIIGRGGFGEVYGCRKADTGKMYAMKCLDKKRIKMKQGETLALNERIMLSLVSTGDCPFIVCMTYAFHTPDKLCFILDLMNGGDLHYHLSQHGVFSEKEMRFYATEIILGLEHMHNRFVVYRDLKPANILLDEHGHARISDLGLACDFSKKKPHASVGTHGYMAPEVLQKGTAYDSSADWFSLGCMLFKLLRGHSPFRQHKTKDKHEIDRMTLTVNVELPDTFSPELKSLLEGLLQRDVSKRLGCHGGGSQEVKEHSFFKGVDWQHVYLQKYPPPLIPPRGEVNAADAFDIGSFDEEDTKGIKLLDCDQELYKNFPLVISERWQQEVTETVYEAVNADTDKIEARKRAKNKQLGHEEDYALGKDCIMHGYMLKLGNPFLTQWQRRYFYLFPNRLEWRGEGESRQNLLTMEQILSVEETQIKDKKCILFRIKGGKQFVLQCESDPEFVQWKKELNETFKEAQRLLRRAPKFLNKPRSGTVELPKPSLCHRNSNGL
The note with it: GRK3; for remaining activity at 0.5 µM / remaining activity at 0.1 µM: read-out: % Enzyme Activity (relative to DMSO controls); for remaining activity at 0.1 µM: 100 nM.
Text: as §1

For test [4], the target named is 363 human kinases (including Aurora A/B/C) (Homo sapiens, UniProt P36507). Particulars: MEK2; for remaining activity at 0.5 µM / remaining activity at 0.1 µM: read-out: % Enzyme Activity (relative to DMSO controls); for remaining activity at 0.1 µM: 100 nM.
Sequence of 363 human kinases (including Aurora A/B/C) (Homo sapiens, UniProt P36507) (P36507 whole entry): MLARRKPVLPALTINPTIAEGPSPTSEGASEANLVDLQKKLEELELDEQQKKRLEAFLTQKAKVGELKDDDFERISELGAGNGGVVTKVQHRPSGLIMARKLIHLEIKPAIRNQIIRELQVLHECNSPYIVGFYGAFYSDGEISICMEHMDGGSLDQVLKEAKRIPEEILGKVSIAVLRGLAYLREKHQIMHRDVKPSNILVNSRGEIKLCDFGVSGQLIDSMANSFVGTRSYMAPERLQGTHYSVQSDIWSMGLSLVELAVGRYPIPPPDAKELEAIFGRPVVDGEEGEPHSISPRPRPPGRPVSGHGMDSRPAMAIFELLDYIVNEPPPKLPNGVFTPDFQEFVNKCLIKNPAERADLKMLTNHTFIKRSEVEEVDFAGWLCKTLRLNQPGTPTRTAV
Text: as §1
Test [5] addresses T2, 363 human kinases (including Aurora A/B/C) (Homo sapiens, UniProt P51817).
T2 sequence (P51817 1-358): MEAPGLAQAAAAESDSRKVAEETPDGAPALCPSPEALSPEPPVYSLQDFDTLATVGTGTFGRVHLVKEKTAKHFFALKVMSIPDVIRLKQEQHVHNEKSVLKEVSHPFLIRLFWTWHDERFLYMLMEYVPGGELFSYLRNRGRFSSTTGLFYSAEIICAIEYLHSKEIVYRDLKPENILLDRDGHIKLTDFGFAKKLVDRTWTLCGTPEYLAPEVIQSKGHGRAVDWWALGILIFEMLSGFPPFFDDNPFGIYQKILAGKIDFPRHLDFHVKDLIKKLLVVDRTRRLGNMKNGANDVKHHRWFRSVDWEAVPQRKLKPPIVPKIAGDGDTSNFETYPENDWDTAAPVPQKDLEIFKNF
The note with it: PRKX; for remaining activity at 0.5 µM / remaining activity at 0.1 µM: read-out: % Enzyme Activity (relative to DMSO controls); for remaining activity at 0.1 µM: 100 nM.
Text: as §1

Test [6] addresses 363 human kinases (including Aurora A/B/C) (Homo sapiens, UniProt P51957). The note with it: NEK4; for remaining activity at 0.5 µM / remaining activity at 0.1 µM: read-out: % Enzyme Activity (relative to DMSO controls); for remaining activity at 0.1 µM: 100 nM.
Text: as §1
In test [7] the target is 363 human kinases (including Aurora A/B/C) (Homo sapiens, UniProt Q04759). The note with it: PKCtheta; for remaining activity at 0.5 µM / remaining activity at 0.1 µM: read-out: % Enzyme Activity (relative to DMSO controls); for remaining activity at 0.1 µM: 100 nM.
Sequence of 363 human kinases (including Aurora A/B/C) (Homo sapiens, UniProt Q04759) (Q04759 whole entry): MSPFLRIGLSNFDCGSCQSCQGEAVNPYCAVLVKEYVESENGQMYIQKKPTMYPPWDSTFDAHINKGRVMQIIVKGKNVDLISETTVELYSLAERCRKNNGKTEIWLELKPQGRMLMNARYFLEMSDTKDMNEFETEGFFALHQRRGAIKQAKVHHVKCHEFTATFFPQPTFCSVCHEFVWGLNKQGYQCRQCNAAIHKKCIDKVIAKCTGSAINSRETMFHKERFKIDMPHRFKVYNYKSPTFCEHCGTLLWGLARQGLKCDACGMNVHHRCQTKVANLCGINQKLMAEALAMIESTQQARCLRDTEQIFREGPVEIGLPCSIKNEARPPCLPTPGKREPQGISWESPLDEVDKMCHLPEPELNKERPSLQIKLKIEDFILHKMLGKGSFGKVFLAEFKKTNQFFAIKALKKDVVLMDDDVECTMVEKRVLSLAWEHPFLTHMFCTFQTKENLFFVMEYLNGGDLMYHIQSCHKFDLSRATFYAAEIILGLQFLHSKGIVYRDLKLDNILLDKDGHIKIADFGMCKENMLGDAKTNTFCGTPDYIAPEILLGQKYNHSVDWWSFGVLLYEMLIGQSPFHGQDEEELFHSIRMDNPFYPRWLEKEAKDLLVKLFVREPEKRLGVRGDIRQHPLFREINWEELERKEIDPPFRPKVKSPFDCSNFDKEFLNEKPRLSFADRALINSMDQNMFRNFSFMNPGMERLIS
Text: as §1
The target in test [8] is 363 human kinases (including Aurora A/B/C) (Homo sapiens, UniProt Q13177). The note with it: PAK2; for remaining activity at 0.5 µM / remaining activity at 0.1 µM: read-out: % Enzyme Activity (relative to DMSO controls); for remaining activity at 0.1 µM: 100 nM.
Sequence of 363 human kinases (including Aurora A/B/C) (Homo sapiens, UniProt Q13177) (Q13177 whole entry): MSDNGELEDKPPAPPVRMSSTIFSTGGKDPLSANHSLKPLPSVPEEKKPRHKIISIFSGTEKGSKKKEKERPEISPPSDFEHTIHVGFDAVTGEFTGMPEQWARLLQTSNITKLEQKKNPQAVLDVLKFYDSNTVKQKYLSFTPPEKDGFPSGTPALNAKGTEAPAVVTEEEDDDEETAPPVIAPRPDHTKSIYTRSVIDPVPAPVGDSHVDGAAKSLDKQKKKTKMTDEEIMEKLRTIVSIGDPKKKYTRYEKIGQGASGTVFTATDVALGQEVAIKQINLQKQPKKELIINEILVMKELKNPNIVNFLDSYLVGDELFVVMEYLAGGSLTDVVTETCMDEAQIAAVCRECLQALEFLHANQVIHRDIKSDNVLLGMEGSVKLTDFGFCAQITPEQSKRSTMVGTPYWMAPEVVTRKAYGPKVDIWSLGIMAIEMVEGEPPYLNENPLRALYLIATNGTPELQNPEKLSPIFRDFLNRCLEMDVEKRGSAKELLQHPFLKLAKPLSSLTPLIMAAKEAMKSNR
Text: as §1
Test [9] concerns the target T3, 363 human kinases (including Aurora A/B/C) (Homo sapiens, UniProt Q13873).
T3 sequence (Q13873 27-1038): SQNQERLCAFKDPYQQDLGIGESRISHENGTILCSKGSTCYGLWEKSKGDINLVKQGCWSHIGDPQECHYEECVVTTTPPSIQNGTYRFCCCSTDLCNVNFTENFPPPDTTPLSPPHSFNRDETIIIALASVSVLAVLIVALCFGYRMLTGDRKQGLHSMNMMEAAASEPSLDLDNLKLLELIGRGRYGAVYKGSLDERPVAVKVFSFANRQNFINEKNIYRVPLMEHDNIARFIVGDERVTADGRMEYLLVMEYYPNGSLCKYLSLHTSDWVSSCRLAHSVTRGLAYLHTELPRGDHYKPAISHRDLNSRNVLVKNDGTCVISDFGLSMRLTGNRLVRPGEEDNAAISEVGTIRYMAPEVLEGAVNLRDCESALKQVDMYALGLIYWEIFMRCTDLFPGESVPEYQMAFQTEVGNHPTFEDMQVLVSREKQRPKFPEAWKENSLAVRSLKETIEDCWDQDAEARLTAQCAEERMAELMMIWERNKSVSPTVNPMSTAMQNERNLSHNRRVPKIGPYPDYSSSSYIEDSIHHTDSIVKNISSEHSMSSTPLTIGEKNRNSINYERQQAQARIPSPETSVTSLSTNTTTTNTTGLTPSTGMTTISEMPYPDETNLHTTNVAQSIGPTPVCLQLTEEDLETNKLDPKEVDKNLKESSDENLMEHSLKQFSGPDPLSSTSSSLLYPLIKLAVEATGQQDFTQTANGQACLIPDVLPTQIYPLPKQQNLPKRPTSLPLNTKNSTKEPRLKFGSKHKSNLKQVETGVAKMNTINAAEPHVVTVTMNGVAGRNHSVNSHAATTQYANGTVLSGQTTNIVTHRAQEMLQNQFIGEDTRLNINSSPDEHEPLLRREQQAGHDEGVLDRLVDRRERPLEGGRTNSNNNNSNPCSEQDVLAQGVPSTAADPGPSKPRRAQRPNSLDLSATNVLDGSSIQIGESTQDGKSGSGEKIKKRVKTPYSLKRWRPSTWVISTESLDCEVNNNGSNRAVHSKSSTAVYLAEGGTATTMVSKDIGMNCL
Particulars: BMPR2, [ATP] 15 µM; for remaining activity at 0.5 µM / remaining activity at 0.1 µM: read-out: % Enzyme Activity (relative to DMSO controls); for remaining activity at 0.1 µM: 100 nM.
Text: as §1

The target of test [10] is 363 human kinases (including Aurora A/B/C) (Homo sapiens, UniProt Q16539). The note with it: P38a/MAPK14; for remaining activity at 0.5 µM / remaining activity at 0.1 µM: read-out: % Enzyme Activity (relative to DMSO controls); for remaining activity at 0.1 µM: 100 nM.
Sequence of 363 human kinases (including Aurora A/B/C) (Homo sapiens, UniProt Q16539) (Q16539 whole entry): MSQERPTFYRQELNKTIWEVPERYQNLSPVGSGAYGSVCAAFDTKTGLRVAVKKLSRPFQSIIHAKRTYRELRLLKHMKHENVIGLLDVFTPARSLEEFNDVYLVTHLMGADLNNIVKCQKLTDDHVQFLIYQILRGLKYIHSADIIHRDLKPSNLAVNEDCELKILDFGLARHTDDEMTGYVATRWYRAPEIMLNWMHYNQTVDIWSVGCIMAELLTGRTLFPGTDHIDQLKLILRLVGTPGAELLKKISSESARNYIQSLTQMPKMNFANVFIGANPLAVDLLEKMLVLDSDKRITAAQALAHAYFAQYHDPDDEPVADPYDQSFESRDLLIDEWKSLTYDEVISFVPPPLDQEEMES
Text: as §1
For test [11], the target named is 363 human kinases (including Aurora A/B/C) (Homo sapiens, UniProt Q96SB4). The note with it: SRPK1; for remaining activity at 0.5 µM / remaining activity at 0.1 µM: read-out: % Enzyme Activity (relative to DMSO controls); for remaining activity at 0.1 µM: 100 nM.
Sequence of 363 human kinases (including Aurora A/B/C) (Homo sapiens, UniProt Q96SB4) (Q96SB4 whole entry): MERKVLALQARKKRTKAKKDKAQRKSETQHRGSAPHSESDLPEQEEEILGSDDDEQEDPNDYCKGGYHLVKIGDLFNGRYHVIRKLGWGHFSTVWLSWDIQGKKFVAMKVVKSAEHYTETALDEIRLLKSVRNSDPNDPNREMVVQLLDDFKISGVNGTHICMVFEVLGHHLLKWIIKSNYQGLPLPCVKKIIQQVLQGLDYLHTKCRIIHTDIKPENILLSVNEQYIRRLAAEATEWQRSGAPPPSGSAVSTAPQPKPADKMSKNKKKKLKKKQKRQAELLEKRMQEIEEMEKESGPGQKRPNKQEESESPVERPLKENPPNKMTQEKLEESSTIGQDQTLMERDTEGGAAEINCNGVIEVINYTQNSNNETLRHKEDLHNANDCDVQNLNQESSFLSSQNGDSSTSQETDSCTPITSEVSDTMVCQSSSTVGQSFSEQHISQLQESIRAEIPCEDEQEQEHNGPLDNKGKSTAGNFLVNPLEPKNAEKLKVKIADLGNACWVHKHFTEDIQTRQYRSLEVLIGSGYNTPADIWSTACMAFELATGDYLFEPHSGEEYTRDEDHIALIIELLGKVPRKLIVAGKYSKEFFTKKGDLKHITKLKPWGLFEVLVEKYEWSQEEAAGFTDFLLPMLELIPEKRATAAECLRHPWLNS
Text: as §1
Where [12] appears, read: 500 nM, read-out: % Enzyme Activity (relative to DMSO controls).

Sequence of 363 human kinases (including Aurora A/B/C) (Homo sapiens, UniProt P51957) (P51957 whole entry): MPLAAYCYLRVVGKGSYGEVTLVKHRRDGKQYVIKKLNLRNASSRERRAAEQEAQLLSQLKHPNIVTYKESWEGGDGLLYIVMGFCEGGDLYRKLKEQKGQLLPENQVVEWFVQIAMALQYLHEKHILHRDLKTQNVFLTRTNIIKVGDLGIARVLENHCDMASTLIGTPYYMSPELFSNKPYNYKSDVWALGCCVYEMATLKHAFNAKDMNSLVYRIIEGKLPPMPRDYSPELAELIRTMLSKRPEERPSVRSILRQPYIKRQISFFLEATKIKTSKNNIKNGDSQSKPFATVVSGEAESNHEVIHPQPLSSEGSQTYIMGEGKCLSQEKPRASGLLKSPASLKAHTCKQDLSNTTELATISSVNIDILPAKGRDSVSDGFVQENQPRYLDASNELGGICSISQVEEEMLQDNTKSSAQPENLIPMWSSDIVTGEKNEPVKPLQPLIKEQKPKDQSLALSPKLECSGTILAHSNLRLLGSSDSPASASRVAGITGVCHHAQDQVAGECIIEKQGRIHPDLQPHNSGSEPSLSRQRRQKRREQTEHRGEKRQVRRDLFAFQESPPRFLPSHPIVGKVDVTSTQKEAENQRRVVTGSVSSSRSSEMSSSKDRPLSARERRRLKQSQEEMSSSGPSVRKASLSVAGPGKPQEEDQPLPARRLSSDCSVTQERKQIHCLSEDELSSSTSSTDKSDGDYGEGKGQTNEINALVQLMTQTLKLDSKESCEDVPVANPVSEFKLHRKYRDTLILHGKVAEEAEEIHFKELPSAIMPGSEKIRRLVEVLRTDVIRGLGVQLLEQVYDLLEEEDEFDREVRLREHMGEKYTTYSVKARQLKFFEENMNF
Sequence of 363 human kinases (including Aurora A/B/C) (Homo sapiens, UniProt O96017) (O96017 whole entry): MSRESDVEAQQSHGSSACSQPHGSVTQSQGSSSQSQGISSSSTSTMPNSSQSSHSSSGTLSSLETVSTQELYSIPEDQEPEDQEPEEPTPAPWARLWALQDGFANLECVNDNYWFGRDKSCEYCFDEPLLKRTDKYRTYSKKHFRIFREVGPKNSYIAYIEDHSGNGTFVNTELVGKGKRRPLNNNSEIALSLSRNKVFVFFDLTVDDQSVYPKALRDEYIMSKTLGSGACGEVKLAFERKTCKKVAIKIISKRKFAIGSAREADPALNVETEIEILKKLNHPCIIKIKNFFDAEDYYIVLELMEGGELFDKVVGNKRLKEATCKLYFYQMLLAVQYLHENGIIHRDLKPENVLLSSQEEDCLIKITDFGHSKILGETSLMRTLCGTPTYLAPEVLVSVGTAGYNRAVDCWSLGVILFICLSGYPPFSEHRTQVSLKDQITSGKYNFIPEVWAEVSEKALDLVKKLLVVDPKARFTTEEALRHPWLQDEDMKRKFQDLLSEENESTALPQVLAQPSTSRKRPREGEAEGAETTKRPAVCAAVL

Take `O=C(c1cccc(Cl)c1F)N1CCN(Cc2cccc(Nc3nccs3)n2)CC1` [MK-8745]: the “% Enzyme Activity (relative to DMSO controls)” value in test [1] (500 nM) is on record as 91.78%; in test [2] (500 nM) it was 62.60%; in test [3] (500 nM) it was 99.18%; in test [4] (500 nM), 93.13%; in test [5] (500 nM), 95.41%; in test [6] (500 nM), 103.20%. The “% Enzyme Activity (relative to DMSO controls)” value in test [7] (500 nM) is 152.58%; in test [8] (500 nM), 102.92%; in test [9] (500 nM), 98.44%; in test [10] (500 nM), 95.14%; in test [11] (500 nM), 99.92%. The remaining activity at 0.5 µM is 93.2% in [1] (setting [12]); 63.4% in [2] (500 nM); 101% in test [3] (500 nM); 95.2% in test [4] (500 nM); 96.5% in [5] (500 nM); 107% in [6] (500 nM). Also, the remaining activity at 0.5 µM in test [7] (500 nM) turned out to be 157%; in test [8] (500 nM), 105%; in test [9] (500 nM), 106%; in test [10] (500 nM) it was 95.3%; in test [11] (500 nM) it was 101%.

On to `CCn1cc(-c2ccnc3[nH]c(-c4cccc(CN(C)C)c4)cc23)c(-c2ccc(NC(=O)N(C)C)cc2)n1` [GSK1070916], for which the remaining activity at 0.1 µM in test [1] (100 nM, read-out: % Enzyme Activity (relative to DMSO controls)) came out at 99.2%; in [2], 92.7%; in [3] it was 98.2%; in test [4] it was 98.2%; in [5], 92.6%; in [6] it was 111%. Further, the remaining activity at 0.1 µM amounted to 92.7% in test [7]; 106% in test [8]; 147% in test [9]; 93.6% in test [10]; 103% in test [11].

In the case of `O=C(O)[C@]1(Cc2cccc(Nc3nccs3)n2)CC[C@@H](Oc2cccc(Cl)c2F)CC1` [MK-5108], the remaining activity at 0.5 µM is 56.2% in test [1] (setting [12]); 4.4% in [2] (500 nM); 101% in [3] (500 nM); 90.3% in test [4] (500 nM); 97.6% in [5] (500 nM); 113% in [6] (500 nM). Also, the remaining activity at 0.5 µM is 104% in test [7] (500 nM); 98.2% in test [8] (500 nM); 37% in test [9] (500 nM); 101% in test [10] (500 nM); 95.5% in test [11] (500 nM). For the same molecule, the remaining activity at 0.1 µM in test [2] amounted to 13.4%; in [3], 101%; in test [4], 95.6%; in [5], 99.8%; in test [6], 96.7%; in [7], 91.8%. Moreover, the remaining activity at 0.1 µM in [8] amounted to 97.1%; in [9] it was 46.4%; in [10], 95.2%; in [11] it was 101%.

Source of the values: publication PMC4685510, “A Cell Biologist’s Field Guide to Aurora Kinase Inhibitors” (Frontiers in Oncology, 2015).
